The source of these data is patent US8936793B2, “Synthetic archaeal glycolipid adjuvants” (National Research Council of Canada, priority 2006, dated 2015).

Data set [1] deals with antigen specific EG.7 targets. Briefly: CTL activity in splenocytes of immunized mice, Cr51-assay. The format is in vivo, C57BL/6 mice. Conditions: for CTL adjuvant activity, FIG. 7B: disaccharide-archaeol/DPPG/cholesterol (25/55/20, mol %), 12 weeks. The procedure:
(§1) To determine adjuvant activity, various synthetic archaeosomes with OVA entrapped (OVA-archaeosomes) were used to immunize female C57BL/6 mice on days 0 and 21 (6-8 weeks old on first injection). Injections were subcutaneous at the tail base with 0.1 ml PBS containing 15 μg OVA entrapped in 0.2-0.63 mg lipids. Blood samples were collected from the tail vein for anti-OVA IgG/IgM antibody titration done by ELISA (13). In some cases faecal extracts were assayed for IgA (and IgG) to assess mucosal responses following systemic immunizations. Fresh faeces (about 30 mg dry weight) were collected from 4 mice/group, and extracted by adding 0.5 ml of phosphate buffered saline (pH 7.0) containing 10% fetal calf serum and 0.1% sodium azide. Homogenized samples were centrifuged and Elisa measured anti OVA antibody in supernatants. Spleens were collected to determine CTL activity using the Cr^51-assay with specific and non-specific targets EG.7 and EL-4, respectively (14). In Elispot assays antigen-specific CD8^+ T cell activity was measured in splenic cells from immunized mice by determining the number of SIINFEKL stimulated IFN-γ-secreting cells per 5×10^5 splenic cells (15).

For data set [2], the system named is SIINFEKL stimulated IFN-γ-secreting cells. Kind of data set: Elispot assay of antigen-specific CD8+ T cell activity in splenic cells of immunized mice. The format is in vivo, C57BL/6 mice. Conditions: for CD8+ T cell adjuvant activity, Elispot, FIG. 7C: glyco-archaeol/DPPG/cholesterol (25/55/20, mol %); for antigen-specific CD8+ T cell response, Elispot, FIG. 10A: gentiotriose archaeol/anionic lipid/cholesterol (35/35/30, mol %), weeks 6 and 8. The procedure: as §1, with “SIINFEKL” left out

In the next data set the test system is anti-OVA antibody. Briefly: Anti-OVA IgG/IgM antibody titration in blood of immunized mice by ELISA. The format is in vivo, C57BL/6 mice. Conditions: for antigen-specific antibody response, FIG. 10B: gentiotriose archaeol/anionic lipid/cholesterol (35/35/30, mol %), 9 weeks. The procedure:
as §1
Background: ELISA stands for enzyme-linked immunosorbent assay.

Data set [3] concerns Listeria monocytogenes (LM)-OVA construct. Briefly: Protection against LM-OVA challenge after vaccination, splenic CFU. The data set is classed as in vivo. Conditions: glyco-archaeol/DPPG/chol (25/55/20, mol %), FIG. 13. The procedure: FIG. 13 illustrates protection against LM-OVA challenge after vaccination with OVA-adjuvant combinations. C57BL/6J mice were immunized on day 0 and 21 with 15 ug OVA entrapped in various synthetic archaeosomes composed of the respective synthetic glyco-archaeol/DPPG/chol (25/55/20, mol %). At 8 weeks, mice were challenged with 10^4 intravenous dose of Listeria monocytogenes (LM)-OVA construct. Mice were euthanized 3 days later. Mean±SEM of splenic colony forming units (CFU) is shown for each group.

The nature of data set [4]: Archaeosome formation upon hydration and stability on storage (microscopic examination, size). The format is physicochemical. Conditions: lipid hydrated alone. An excerpt:
Presence of a relationship was explored between adjuvant activity and the mol % of the active ingredient, β-D-Glc-(1,6)-β-D-Glc-archaeol, mixed with DPPG/cholesterol. Cholesterol was maintained constant at 20 mol % with DPPG added as required to balance increasing amounts of β-D-Glc-(1,6)-β-D-Glc-archaeol. […] Hydration became more difficult at 60 mol % D-Glc-(1,6)-β-D-Glc-archaeol, and archaeosomes with 60 mol % of the synthetic glyco-archaeol increased in size during the removal of unentrapped antigen indicating instability (Table 11). […] Immunized mice developed CD8^+ T cell immune responses that were best at 15-45 mol % Glc2-archaeol content (FIG. 5).
The need for cholesterol, and the optimal mol % cholesterol needed to achieve stability of archaeosomes containing 35 mol % D-Glc-(1,6)-β-D-Glc-archaeol was explored. Cholesterol was varied in each preparation from 0, 10, 20, 30 and 45 mol %. DPPG made up the balance of each preparation. Lipids were mixed in solvent and archaeosomes were loaded with the antigen OVA as described in methods. Archaeosomes formed in all cases upon hydrating at 35° C. However, when stored at refrigeration temperatures (4-6° C.) these synthetic archaeosomes with no cholesterol were unstable, converting to amorphous lipid debris and needle shaped crystals. This instability was avoided by inclusion of 10 mol % or more cholesterol. […] The optimal cholesterol was therefore in the range of >10 to <45 mol %.
Archaeosomes/liposomes were prepared by hydrating 20-30 mg lipids at 40° C. in 2 ml of PBS buffer (10 mM sodium phosphate, 160 mM NaCl, pH 7.1) or water with (Ag-loaded) or without (Ag-free) the test antigen OVA dissolved at 10 mg/ml. In some cases, cholesterol (Sigma), DPPS, DPPE, or DPPG (Avanti Polar Lipids) polar lipids were mixed in chloroform/methanol with the synthetic glyco-archaeols. […] Quantification of antigen loading was done by SDS polyacrylamide gel electrophoresis as described and based on salt corrected dry weights (27). Average diameters were determined by particle size analysis using a 5 mW He/Ne laser (Nicomp 370).

A further data set has as its system B16OVA cells. Briefly: Skin melanoma solid tumor model, protection upon vaccination. Conditions: 5 mice/group, vaccinated s.c. with 15 μg OVA at 0 and 3 weeks, archaeal lipid/DPPG/cholesterol 25/55/20 mol %. The format is in vivo, C57BL/6 mice. The procedure:
A skin melanoma solid tumor model was used in mice to evaluate protection achieved upon vaccination with synthetic archaeosomes. Mice were vaccinated subcutaneously with 15 μg OVA or synthetic archaeosome compositions containing 15 μg OVA at 0 and 3 weeks. Archaeosome lipid compositions were synthetic archaeal lipid/DPPG/cholesterol (25/55/20 mol %). At week 7 post first injection 5×10^6 B16OVA cells were injected subcutaneously in the shaved lower dorsal area. The time was recorded when solid tumours became evident.

Regarding `CC(C)CCC[C@@H](C)CCC[C@@H](C)CCC[C@@H](C)CCOC[C@H](CO[C@@H]1O[C@H](CO[C@H]2O[C@H](CO)[C@H](O)[C@H](O)[C@H]2O)[C@@H](O)[C@H](O)[C@H]1O)OCC[C@H](C)CCC[C@H](C)CCC[C@H](C)CCCC(C)C` [melibiose-archaeol], the “CTL adjuvant activity, FIG. 7B” value in data set [1] is given as “strong”.

Regarding `CC(C)CCC[C@@H](C)CCC[C@@H](C)CCC[C@@H](C)CCOC[C@H](CO[C@@H]1O[C@H](CO[C@H]2O[C@H](CO)[C@@H](O)[C@H](O)[C@H]2O)[C@@H](O)[C@H](O)[C@H]1O)OCC[C@H](C)CCC[C@H](C)CCC[C@H](C)CCCC(C)C` [isomaltose-A], the “CD8+ T cell adjuvant activity, Elispot, FIG. 7C” value in data set [2] (6 weeks) is reported as “lower CD8^+ T cell responses”. The “antibody responses, FIG. 7D” value in the data set with anti-OVA antibody (glyco-archaeol/DPPG/cholesterol (25/55/20, mol %), 6 weeks) is listed as “quite strong”. Also, the “protection from LM-OVA infection” value in data set [3] was “less protective”. Take `CCCCCCCCCCCCCCCC(=O)OCC(COP(=O)(O)OCCN)OC(=O)CCCCCCCCCCCCCCC` (centres unmarked) [DPPE, reference compound]: the “antigen-specific CD8+ T cell response, Elispot, FIG. 10A” value (“antigen-specific CD8+ T cell response” for short) in data set [2] is given as “relatively low CD8^+ T cell activity”. Moreover, the “Elispot activity as % of the activity found for DPPG” value in data set [2] (gentiotriose-archaeol/anionic lipid/cholesterol (35/35/30, mol %), 6 weeks, data not shown) is on record as 27%. Moreover, in the data set on anti-OVA antibody, the “antigen-specific antibody response, FIG. 10B” value is “equivalent in antibody response to archaeosomes containing archaetidylglycerol”. With `CCCCCCCCCCCCCCCC(=O)OCC(COP(=O)(O)OCC(O)CO)OC(=O)CCCCCCCCCCCCCCC` (centres unmarked) [DPPG, dipalmitoylphosphatidylglycerol, reference compound], in data set [2], the “antigen-specific CD8+ T cell response” value is “transient”.

For the molecule `CC(C)CCC[C@@H](C)CCC[C@@H](C)CCC[C@@H](C)CCOC[C@H](CO[C@H]1O[C@H](CO)[C@@H](O)[C@H](O)[C@@H]1O[C@H]1O[C@H](CO)[C@@H](O)[C@H](O)[C@@H]1O)OCC[C@H](C)CCC[C@H](C)CCC[C@H](C)CCCC(C)C` [Man2-C], in data set [4], the “archaeosome formation upon hydration” value is “did not form readily”. For the molecule archaetidylglycerol [AG], in data set [1] (15 μg OVA s.c. 0 and 3 weeks, spleens 7 weeks after first immunization), the “CTL adjuvant activity, FIG. 3” value is “little ability to serve as adjuvants”. For the same molecule, the “antigen-specific CD8+ T cell response” value in data set [2] is “Best activity”. On to `CC(C)CCC[C@@H](C)CCC[C@@H](C)CCC[C@@H](C)CCOC[C@H](CO[C@@H]1O[C@H](CO)[C@@H](O[C@@H]2O[C@H](CO)[C@H](O)[C@H](O)[C@H]2O)[C@H](O)[C@H]1O)OCC[C@H](C)CCC[C@H](C)CCC[C@H](C)CCCC(C)C` [lactose-archaeol], for which the “CTL adjuvant activity, FIG. 7B” value in data set [1] is “strong”.

As for archaetidylinositol, the “antigen-specific antibody response, FIG. 10B” value in the data set with anti-OVA antibody is recorded as “favoured the antibody CD4^+ T cell response over the CD8^+ T cell response”. In the case of `CC(C)CCC[C@@H](C)CCC[C@@H](C)CCC[C@@H](C)CCOC[C@H](CO[C@@H]1O[C@H](CO[C@@H]2O[C@H](CO)[C@@H](O)[C@H](O)[C@H]2O)[C@@H](O)[C@H](O)[C@H]1O)OCC[C@H](C)CCC[C@H](C)CCC[C@H](C)CCCC(C)C` [Glc2-archaeol], the “CTL response, FIG. 4A” value in data set [1] (15 μg OVA s.c. 0 and 3 weeks, 6 weeks from first injection) is recorded as “dramatic increase”. In addition, the “mol % Glc2-archaeol content at which CD8+ T cell immune responses were best” value in data set [1] (cholesterol 20 mol %, DPPG remainder, FIG. 5) is given as 15-45 mol %. Moreover, the “CD8+ T cell adjuvant activity, Elispot, FIG. 7C” value in data set [2] (6 weeks) is “best”. Also, the “anti-OVA antibody response, FIG. 4B” value with anti-OVA antibody (15 μg OVA s.c. 0 and 3 weeks, 6 and 11 weeks) was “dramatic increase”. The “archaeosome formation upon hydration” value in data set [4] is listed as “did not form readily”. As for “archaetidylglycerophosphate-methyl [AGP-CH3]”, in data set [2], the “antigen-specific CD8+ T cell response” value is “Best activity”.

Consider Sulfonoquinovosyl diacylglycerol [SQDG], for which the “antigen-specific CD8+ T cell response” value in data set [2] is listed as “Best activity”. Consider `CC(C)CCC[C@@H](C)CCC[C@@H](C)CCC[C@@H](C)CCOC[C@H](CO[C@H]1O[C@H](CO)[C@@H](O)[C@H](O)[C@@H]1O)OCC[C@H](C)CCC[C@H](C)CCC[C@H](C)CCCC(C)C` [Man1-C], for which the “archaeosome formation upon hydration” value in data set [4] is reported as “did not form readily”.

As to `CC(C)CCC[C@@H](C)CCC[C@@H](C)CCC[C@@H](C)CCOC[C@H](CO[C@@H]1O[C@H](CO[C@@H]2O[C@H](CO[C@@H]3O[C@H](CO)[C@@H](O)[C@H](O)[C@H]3O)[C@@H](O)[C@H](O)[C@H]2O)[C@@H](O)[C@H](O)[C@H]1O)OCC[C@H](C)CCC[C@H](C)CCC[C@H](C)CCCC(C)C` [gentiotriose-A], in data set [3], the “protection from LM-OVA infection” value is given as “Best protection”.

B1: OVA (protein, UniProt P01012 2-386, looked up)
Ovalbumin: GSIGAASMEFCFDVFKELKVHHANENIFYCPIAIMSALAMVYLGAKDSTRTQINKVVRFDKLPGFGDSIEAQCGTSVNVHSSLRDILNQITKPNDVYSFSLASRLYAEERYPILPEYLQCVKELYRGGLEPINFQTAADQARELINSWVESQTNGIIRNVLQPSSVDSQTAMVLVNAIVFKGLWEKAFKDEDTQAMPFRVTEQESKPVQMMYQIGLFRVASMASEKMKILELPFASGTMSMLVLLPDEVSGLEQLESIINFEKLTEWTSSNVMEERKIKVYLPRMKMEEKYNLTSVLMAMGITDVFSSSANLSGISSAESLKISQAVHAAHAEINEAGREVVGSAEAGVDAASVSEEFRADHPFLFCIKHIATNAVLFFGRCVSP
As for B1, the “numbers of mice that developed a solid tumor” value is given as 2 in the data set on B16OVA cells (6 days from subcutaneous injection of B16OVA tumor cells), 3 with B16OVA cells (9 days from subcutaneous injection of B16OVA tumor cells), 4 with B16OVA cells (16 days from subcutaneous injection of B16OVA tumor cells) and “euthanized” in the data set with B16OVA cells (20 days from subcutaneous injection of B16OVA tumor cells).
